Data taken from ChEMBL document CHEMBL1149126, “3-phenyl-6-(2-pyridyl)methyloxy-1,2,4-triazolo[3,4-a]phthalazines and analogues: high-affinity gamma-aminobutyric acid-A benzodiazepine receptor ligands with alpha 2, alpha 3, and alpha 5-subtype binding selectivity over alpha 1” (J Med Chem, 2004).

Key:
[1] = molecular target: T1, GABA-A receptor; alpha-3/beta-3/gamma-2 (Homo sapiens, UniProt P18507+P28472+P34903); assay: Binding affinity for human GABA-A receptor alpha-3-beta-3-gamma-2 subunits in L(tk-) cells; type: cell-based
T1 sequence (P18507 whole entry): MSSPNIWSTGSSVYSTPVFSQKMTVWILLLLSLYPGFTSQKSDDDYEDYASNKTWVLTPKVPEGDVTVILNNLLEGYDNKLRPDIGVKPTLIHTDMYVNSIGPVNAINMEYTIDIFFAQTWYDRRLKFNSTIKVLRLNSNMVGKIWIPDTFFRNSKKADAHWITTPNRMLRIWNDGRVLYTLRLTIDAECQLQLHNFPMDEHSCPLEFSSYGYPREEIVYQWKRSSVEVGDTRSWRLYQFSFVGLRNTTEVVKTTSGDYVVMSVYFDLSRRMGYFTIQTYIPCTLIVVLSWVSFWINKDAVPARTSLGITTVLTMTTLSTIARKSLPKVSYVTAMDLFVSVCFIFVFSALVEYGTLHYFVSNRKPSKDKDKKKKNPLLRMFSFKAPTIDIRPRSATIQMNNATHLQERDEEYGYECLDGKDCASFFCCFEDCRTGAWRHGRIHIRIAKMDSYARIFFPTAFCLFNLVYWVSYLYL
T1 sequence (P28472 whole entry): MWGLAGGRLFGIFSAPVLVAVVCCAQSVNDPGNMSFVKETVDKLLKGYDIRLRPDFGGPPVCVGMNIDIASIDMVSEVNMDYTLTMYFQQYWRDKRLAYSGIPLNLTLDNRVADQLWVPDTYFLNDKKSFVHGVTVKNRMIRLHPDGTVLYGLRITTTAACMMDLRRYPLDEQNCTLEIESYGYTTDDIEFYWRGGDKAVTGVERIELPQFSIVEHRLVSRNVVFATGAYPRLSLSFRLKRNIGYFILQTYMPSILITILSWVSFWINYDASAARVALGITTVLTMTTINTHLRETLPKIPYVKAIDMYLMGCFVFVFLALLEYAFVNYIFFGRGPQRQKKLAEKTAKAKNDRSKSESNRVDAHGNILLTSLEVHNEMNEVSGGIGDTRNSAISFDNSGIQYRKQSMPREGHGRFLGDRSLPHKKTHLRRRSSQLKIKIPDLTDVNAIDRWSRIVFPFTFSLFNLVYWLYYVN
T1 sequence (P34903 whole entry): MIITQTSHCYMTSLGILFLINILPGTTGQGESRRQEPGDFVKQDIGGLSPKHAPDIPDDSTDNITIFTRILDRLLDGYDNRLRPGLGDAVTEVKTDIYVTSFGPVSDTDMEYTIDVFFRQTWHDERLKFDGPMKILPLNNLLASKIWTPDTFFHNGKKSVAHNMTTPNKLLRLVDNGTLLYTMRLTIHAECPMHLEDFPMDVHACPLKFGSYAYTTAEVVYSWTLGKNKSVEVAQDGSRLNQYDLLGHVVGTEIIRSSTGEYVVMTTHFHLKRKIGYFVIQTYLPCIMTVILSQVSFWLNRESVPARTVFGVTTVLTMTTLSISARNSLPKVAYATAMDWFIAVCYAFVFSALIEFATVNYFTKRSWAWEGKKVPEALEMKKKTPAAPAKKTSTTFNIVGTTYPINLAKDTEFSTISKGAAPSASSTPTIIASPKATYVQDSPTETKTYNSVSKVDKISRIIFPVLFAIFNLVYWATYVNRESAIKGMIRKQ

[2] = molecular target: T2, GABA-A receptor; alpha-2/beta-3/gamma-2 (Homo sapiens, UniProt P18507+P28472+P47869); assay: Binding affinity for human GABA-A receptor alpha-2-beta-3-gamma-2 subunits in L(tk-) cells; type: cell-based
T2 sequence (P18507 whole entry): T1 sequence (P18507 whole entry)
T2 sequence (P28472 whole entry): T1 sequence (P28472 whole entry)
T2 sequence (P47869 whole entry): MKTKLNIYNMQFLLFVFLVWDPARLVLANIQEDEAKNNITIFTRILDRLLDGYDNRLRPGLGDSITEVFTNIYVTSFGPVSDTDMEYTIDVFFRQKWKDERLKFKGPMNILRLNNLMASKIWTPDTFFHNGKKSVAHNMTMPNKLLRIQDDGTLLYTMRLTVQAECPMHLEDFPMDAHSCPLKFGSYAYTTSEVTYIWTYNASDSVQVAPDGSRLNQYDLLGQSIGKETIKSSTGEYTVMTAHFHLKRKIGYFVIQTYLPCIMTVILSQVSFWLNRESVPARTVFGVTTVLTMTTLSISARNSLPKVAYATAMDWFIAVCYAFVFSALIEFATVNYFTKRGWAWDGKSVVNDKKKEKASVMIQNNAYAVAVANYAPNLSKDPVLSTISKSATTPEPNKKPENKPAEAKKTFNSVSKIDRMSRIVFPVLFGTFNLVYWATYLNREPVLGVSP

[3] = molecular target: T3, GABA-A receptor; alpha-5/beta-3/gamma-2 (Homo sapiens, UniProt P18507+P28472+P31644); assay: Binding affinity for human GABA-A receptor alpha-5-beta-3-gamma-2 subunits in L(tk-) cells; type: cell-based
T3 sequence (P18507 whole entry): T1 sequence (P18507 whole entry)
T3 sequence (P28472 whole entry): T1 sequence (P28472 whole entry)
T3 sequence (P31644 whole entry): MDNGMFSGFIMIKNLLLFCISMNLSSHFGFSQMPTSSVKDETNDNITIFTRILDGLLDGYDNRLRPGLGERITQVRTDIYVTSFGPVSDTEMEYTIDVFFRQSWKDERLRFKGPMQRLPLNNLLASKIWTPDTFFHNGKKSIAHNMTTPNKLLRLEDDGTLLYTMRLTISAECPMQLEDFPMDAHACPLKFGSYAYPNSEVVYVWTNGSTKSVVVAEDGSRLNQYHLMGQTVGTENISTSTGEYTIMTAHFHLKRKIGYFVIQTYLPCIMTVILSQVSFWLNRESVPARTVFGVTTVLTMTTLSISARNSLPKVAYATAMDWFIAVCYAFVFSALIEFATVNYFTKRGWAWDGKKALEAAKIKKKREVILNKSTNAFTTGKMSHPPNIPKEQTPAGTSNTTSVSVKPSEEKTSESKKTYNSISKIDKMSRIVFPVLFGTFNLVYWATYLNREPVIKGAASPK

[4] = molecular target: T4, GABA-A receptor; alpha-1/beta-3/gamma-2 (Homo sapiens, UniProt P14867+P18507+P28472); assay: Binding affinity for human GABA-A receptor alpha-1-beta-3-gamma-2 subunits in L(tk-) cells
T4 sequence (P14867 whole entry): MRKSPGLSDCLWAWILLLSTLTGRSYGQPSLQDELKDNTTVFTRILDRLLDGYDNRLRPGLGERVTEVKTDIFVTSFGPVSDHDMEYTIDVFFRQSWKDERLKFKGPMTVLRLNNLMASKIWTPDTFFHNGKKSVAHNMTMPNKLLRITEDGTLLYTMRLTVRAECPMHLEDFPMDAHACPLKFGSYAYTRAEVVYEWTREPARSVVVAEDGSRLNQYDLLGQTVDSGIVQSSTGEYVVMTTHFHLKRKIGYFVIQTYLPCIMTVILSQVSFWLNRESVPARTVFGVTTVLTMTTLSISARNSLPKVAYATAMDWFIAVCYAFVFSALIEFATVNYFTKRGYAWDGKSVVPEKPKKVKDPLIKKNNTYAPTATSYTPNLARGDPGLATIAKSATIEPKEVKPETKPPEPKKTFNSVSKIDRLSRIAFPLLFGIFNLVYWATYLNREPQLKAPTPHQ
T4 sequence (P18507 whole entry): T1 sequence (P18507 whole entry)
T4 sequence (P28472 whole entry): T1 sequence (P28472 whole entry)

Cc1ccc(-c2nnc3c4ccccc4c(OCc4ccccn4)nn23)cc1
Ki [1]: 11 nM
Ki [2]: 16 nM
Ki [3]: 4 nM

c1ccc(-c2nnc3c4ccccc4c(OCc4cccs4)nn23)cc1
Ki [1]: 300 nM
Ki [4]: 240 nM
Ki [2]: 560 nM
Ki [3]: 170 nM

c1ccc(-c2nnc3c4ccccc4c(OCc4cccnn4)nn23)cc1
Ki [1]: 0.37 nM
Ki [4]: 0.82 nM
Ki [3]: 0.15 nM

c1ccc(Oc2nn3c(-c4ccccc4)nnc3c3ccccc23)cc1
Ki [1]: > 1000 nM
Ki [4]: > 1000 nM
Ki [2]: > 1000 nM
Ki [3]: > 1000 nM

Fc1ccc(-c2nnc3c4ccccc4c(OCc4ccccn4)nn23)cc1
Ki [1]: 2.4 nM
Ki [4]: 3.9 nM
Ki [2]: 3.7 nM
Ki [3]: 1.7 nM

Cc1ccc2c(OCc3ccccn3)nn3c(-c4ccccc4)nnc3c2c1
Ki [1]: > 1000 nM
Ki [4]: > 1000 nM
Ki [2]: > 1000 nM
Ki [3]: > 1000 nM

Cc1ccc(COc2nn3c(-c4ccccc4)nnc3c3ccccc23)nc1
Ki [1]: 4.3 nM
Ki [4]: 4.8 nM
Ki [2]: 3.6 nM
Ki [3]: 1.1 nM

c1ccc(-c2nnc3c4ccccc4c(OCc4ccncn4)nn23)cc1
Ki [1]: 1.3 nM
Ki [4]: 2.3 nM
Ki [2]: 2.9 nM
Ki [3]: 0.5 nM

COc1ccc(-c2nnc3c4ccccc4c(=O)n(Cc4ccccc4)n23)cc1
Ki [1]: > 1000 nM
Ki [4]: > 1000 nM
Ki [2]: > 1000 nM
Ki [3]: > 1000 nM

COCCN(CCOC)c1nn2c(-c3ccc(OC)cc3)nnc2c2ccccc12
Ki [1]: 41 nM
Ki [2]: 41 nM
Ki [3]: 80 nM

Cc1ccnc(COc2nn3c(-c4ccccc4)nnc3c3ccccc23)c1
Ki [1]: 10 nM
Ki [4]: 18 nM
Ki [2]: 11 nM
Ki [3]: 3.7 nM

c1ccc(-c2nnc3c4ccccc4c(OCC4CCCCC4)nn23)cc1
Ki [1]: > 1000 nM
Ki [4]: > 1000 nM
Ki [2]: > 1000 nM
Ki [3]: > 1000 nM

COc1ccccc1COc1nn2c(-c3ccccc3)nnc2c2ccccc12
Ki [1]: > 1000 nM
Ki [4]: > 1000 nM
Ki [2]: > 1000 nM
Ki [3]: > 1000 nM

c1ccc(CCOc2nn3c(-c4ccccc4)nnc3c3ccccc23)cc1
Ki [1]: 720 nM
Ki [4]: 380 nM
Ki [2]: > 1000 nM
Ki [3]: > 1000 nM

c1ccc(Cc2nnc3c4ccccc4c(OCc4ccccn4)nn23)cc1
Ki [1]: 190 nM
Ki [4]: 260 nM
Ki [2]: 340 nM
Ki [3]: 18 nM

COc1ccc(COc2nn3c(-c4ccccc4)nnc3c3ccccc23)cc1
Ki [1]: 190 nM
Ki [4]: 200 nM
Ki [2]: 220 nM
Ki [3]: 160 nM

Cc1ccc(-c2nc3ccc(C)cn3c2CC(=O)N(C)C)cc1 [ZOLPIDEM]
Ki [3]: > 15000 nM

COc1ccc(-c2nnc3c4ccccc4c(OCc4ccccc4)nn23)cc1
Ki [1]: 170 nM
Ki [2]: 850 nM
Ki [3]: 72 nM
